This passage reports EC50 and Emax results from patent US8546416B2, “3-spirocyclic piperidine derivatives as ghrelin receptor agonists” (Novartis AG, priority 2011, dated 2013).

Assay [1] addresses T1, human recombinant ghrelin receptor (GHS-R1a) (Homo sapiens, UniProt Q92847).
T1 construct: host or cells: CHO-K1
As to the kind of experiment: hGHS-R1a cAMP assay (HTRF cAMP dynamic 2 kit, CHO-hGHS-R1a cells). The class given is cell-based. The note with it: 60 min incubation, dose response up to 30 μM. The method, then: (§1) Chinese hamster ovary (CHO-K1) cells expressing human recombinant ghrelin receptor (GHS-R1a) were purchased from Euroscreen (ES-410-C) and propagated in UltraCHO medium containing glutamine and supplemented with 1% heat inactivated foetal calf serum (FCS), 100 U/ml penicillin, 100 mg/l streptomycin and 0.8 g/l geneticin. Cells were sub-cultured twice a week with a 1:10 dilution. For passaging, cells were washed with 1×DPBS without calcium and magnesium, trypsinised for 10 min with 0.05% Trypsin/EDTA and resuspended in cell culture medium.
The Homogeneous Time-Resolved Fluorescence (HTRF) cAMP dynamic 2 kit (Cisbio International, France) was used as follows. CHO-hGHS-R1a or CHO-rGHS-R1a cells were seeded in a volume of 25 μl culture media at 10,000 cells/well (400,000 cells/ml) in Greiner white 384-well high volume plates and incubated overnight (18-24 h) at 37° C./5% CO2. Then, media was removed and 6 μl assay buffer [HBSS, 10 mM Hepes, 0.2% (w/v) BSA, 1.7 mM IBMX, (pH7.4)] were added to the wells. To generate a dose response up to 30 μM, 10 mM compound stocks in 100% (v/v) DMSO were firstly diluted in 50% (v/v) DMSO followed by a further dilution into assay buffer. Then, 4 μl of 2.5× compound (dose response as 9 point log serial dilution in assay buffer from 30 μM as maximum concentration) were added to each well achieving a final DMSO assay concentration of 0.8% (v/v). 0.1 μM forskolin was added as positive control. After 30 min (rGHS-R1a cell line) or 60 min (hGHS-R1a cell line) incubation at 37° C./5% CO2, 5 μl of cAMP-d2 and 5 μl of anti-cAMP antibody-cryptate, (both made in lysis buffer), were added to the plate followed by 1 h incubation at RT. During this time, cAMP produced by the cells competed with cAMP-d2 for the anti-cAMP antibody-cryptate molecule. Then, the plate was read on the Pherastar instrument (BMG, Germany) at two different emission wavelengths (620 and 650 nm). Increasing levels of endogenous cAMP produced by cells could be followed by a decrease of FRET fluorescent signal and viceversa. Values represented by a change in arbitrary fluorescence ratios (665/620) were converted into cAMP concentrations by using a standard curve, the reagents for which were supplied with the kit. EC50 values of agonists were calculated using the nonlinear logistic function of the Prism 5 software (GraphPad, USA). Emax were expressed as relative values of the ghrelin response, which was defined as 100%.

The target of assay [2] is T1, human recombinant ghrelin receptor (GHS-R1a). The assay is described as follows: hGHS-R1a Ca assay (Fluo-4 calcium assay in CHO-K1 cells). Format: cell-based. The note with it: for EC50: CHO-K1 cells expressing human GHS-R1a, agonist dose response up to 30 μM. As for the experimental part: as §1
Cells were diluted to achieve 1×10^6 cells/ml, seeded in 384-well black clear bottom CellBind plates at 25000 cells/well (25 ul) and incubated overnight at 37° C./5% CO2 Cells were expected to be 85-90% confluent on the day of assay (checked under the microscope) to ensure a high quality assay. Media was manually removed and 40 μl of loading solution containing probenecid and Fluo-4 no wash dye (a calcium indicator, Invitrogen F36206) were added to each well. After 30 min at 37° C. followed by another 30 min at RT, cpds were added to the wells. To generate a dose response up to 30 μM, 10 mM compound stocks in 100% (v/v) DMSO were firstly diluted in 50% (v/v) DMSO. Then, serial dilutions aimed at a full logarithmic dose responses (8 point) were performed in assay buffer [1×HBSS, 20 mM Hepes, 0.1% (w/v) BSA] to give 2.5% (v/v) DMSO and 5× final compound concentrations. The final assay DMSO concentration was 0.5% (v/v). After loading the cells with Fluo-4 containing solution, plates were read on a CellLux instrument (Perkin Elmer). A protocol set up to add 10 μl of 5× compound and to read the plate for 60 sec after adding the compound at 17th sec was used. Fluorescence excitation took place at 494 nm and emission at 516 nm. EC50 values of agonists were calculated by fitting the percent stimulation over background [(Max−Min)/Min] using the nonlinear logistic function of the Prism 5 software (GraphPad, USA).

T1 sequence (Q92847 whole entry): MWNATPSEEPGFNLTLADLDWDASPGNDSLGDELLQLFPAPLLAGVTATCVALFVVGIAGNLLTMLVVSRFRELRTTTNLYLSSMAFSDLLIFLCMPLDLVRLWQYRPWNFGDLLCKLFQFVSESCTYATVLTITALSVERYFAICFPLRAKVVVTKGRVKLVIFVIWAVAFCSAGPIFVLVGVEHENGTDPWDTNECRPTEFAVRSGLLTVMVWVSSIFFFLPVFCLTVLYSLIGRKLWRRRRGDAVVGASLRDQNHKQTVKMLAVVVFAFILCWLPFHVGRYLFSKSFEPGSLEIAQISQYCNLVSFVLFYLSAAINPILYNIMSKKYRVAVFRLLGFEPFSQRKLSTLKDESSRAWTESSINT

For `CN1N=C(c2ccccc2)C2(CCCN(C(=O)[C@@H](COCc3ccccc3)NC(=O)C(C)(C)N)C2)C1=O` (mixture of isomers) [Example 1.47, 2-Amino-N-[(R)-1-benzyloxymethyl-2-(3-methyl-4-oxo-1-phenyl-2,3,7-triaza-spiro[4.5]dec-1-en-7-yl)-2-oxo-ethyl]-2-methyl-propionamide], the 50% effective concentration (EC50) stood at 0.385 µM in assay [1] and 0.0017 µM in assay [2].
The like results for `CN1C[C@H](c2ccccc2)[C@]2(CCCN(C(=O)[C@@H](COCc3ccccc3)NC(=O)C(C)(C)N)C2)C1=O` (single isomer, unassigned) [Example 1.0(i)] were, in that order, 1.34 µM and 0.0023 µM.
The like results for `CN1C[C@@H](c2ccccc2)[C@@]2(CCCN(C(=O)[C@@H](COCc3ccccc3)NC(=O)C(C)(C)N)C2)C1=O` (single isomer, unassigned) [Example 1.0(ii)] were, in that order, 0.043 µM and 0.00016 µM.
For `CC(C)(N)C(=O)N[C@H](COCc1ccccc1)C(=O)N1CCCC2(C1)C(=O)NCC2c1ccccc1` (single isomer, unassigned) [Example 1.4], the values for the EC50 in assay [1] and in assay [2] were 0.051 µM and 0.0002 µM, respectively.
On the same counts, the results for `CC(C)N1CC(c2ccccc2)C2(CCCN(C(=O)[C@@H](COCc3ccccc3)NC(=O)C(C)(C)N)C2)C1=O` (single isomer, unassigned) [Example 1.5] are 0.02 µM and 0.0001 µM.
On the same counts, the results for `CN1CC(c2ccc(Cl)cc2)C2(CCCN(C(=O)[C@@H](COCc3ccccc3)NC(=O)C(C)(C)N)C2)C1=O` (single isomer, unassigned) [Example 1.8] are 0.162 µM and 0.0003 µM.
On to `CN1CC(c2ccc(F)cc2)C2(CCCN(C(=O)[C@@H](Cc3c[nH]c4ccccc34)NC(=O)C(C)(C)N)C2)C1=O` (single isomer, unassigned) [Example 1.11], for which the results for the EC50 in assay [1] and in assay [2] were 0.023 µM and 0.0003 µM, respectively.
The like results for `CC(C)N1CC(c2ccc(F)cc2)C2(CCCN(C(=O)[C@@H](Cc3cn(C)c4ccccc34)NC(=O)C(C)(C)N)C2)C1=O` (single isomer, unassigned) [Example 1.15] were, in that order, 0.128 µM and 0.0016 µM.
The like results for `CN(C)C(=O)CN1CC(c2ccccc2)C2(CCCN(C(=O)[C@@H](COCc3ccccc3)NC(=O)C(C)(C)N)C2)C1=O` (single isomer, unassigned) [Example 1.16] were, in that order, 0.039 µM and 0.0005 µM.
For `CNC(C)(C)C(=O)N[C@H](COCc1ccccc1)C(=O)N1CCCC2(C1)C(=O)N(C)CC2c1ccccc1` (single isomer, unassigned) [Example 1.17], the figures for the EC50 in assay [1] and in assay [2] were 0.082 µM and 0.001 µM, respectively.
Consider `CN1CC(c2ccccc2)C2(CCCN(C(=O)[C@@H](COCc3ccccc3)NC(=O)C(C)(C)N)C2)C1=O` (single isomer, unassigned) [Example 1.20], for which the figures for the EC50 in assay [1] and in assay [2] were 2.28 µM and 0.0016 µM, respectively.
On the same counts, the results for `CN1CC(c2ccccc2)C2(CCCN(C(=O)[C@@H](COCc3ccccc3)NC(=O)C(C)(C)N)C2)C1=O` (single isomer, unassigned) [Example 1.21] are 1.93 µM and 0.0021 µM.
On the same counts, the results for `CCN1CC(c2ccccc2)C2(CCCN(C(=O)[C@@H](COCc3ccccc3)NC(=O)C(C)(C)N)C2)C1=O` (single isomer, unassigned) [Example 1.25] are 0.043 µM and 0.0003 µM.
For `CN1CC(c2ccccc2)C2(CCCN(C(=O)[C@@H](CCc3ccccc3)NC(=O)C(C)(C)N)C2)C1=O` (single isomer, unassigned) [Example 1.28], the EC50 in assay [1] is 0.141 µM; in assay [2] it was 0.00065 µM.
On the same counts, the results for `Cc1ccc(COC[C@@H](NC(=O)C(C)(C)N)C(=O)N2CCCC3(C2)C(=O)N(C)CC3c2ccc(F)cc2)cc1` (single isomer, unassigned) [Example 1.29] are 0.049 µM and 0.00035 µM.
The like results for `CN1CC(c2ccccc2)C2(CCCN(C(=O)[C@@H](CCCc3ccccc3)NC(=O)C(C)(C)N)C2)C1=O` (single isomer, unassigned) [Example 1.32] were, in that order, 0.011 µM and 0.0003 µM.
Regarding `C[C@H](OCc1ccccc1)[C@@H](NC(=O)C(C)(C)N)C(=O)N1CCCC2(C1)C(=O)N(C)CC2c1ccccc1` (single isomer, unassigned) [Example 1.34], the EC50 in assay [1] was 0.184 µM; in assay [2] it was 0.0005 µM.
On the same counts, the results for `CC(C)(C)CN1CC(c2ccccc2)C2(CCCN(C(=O)[C@@H](COCc3ccccc3)NC(=O)C(C)(C)N)C2)C1=O` (single isomer, unassigned) [Example 1.40] are 0.034 µM and 0.0007 µM.
For `CC(C)(N)C(=O)N[C@H](COCc1ccccc1)C(=O)N1CCCC2(C1)C(=O)NCC2c1ccccc1` (single isomer, unassigned) [Example 1.49], the EC50 in assay [1] came to 0.154 µM; in assay [2], 0.0006 µM. The Emax in assay [2] (CHO-K1, relative to Emax induced by MK-0677 (defined as 100%)) amounted to 93%.
For the compound `Cc1ccccc1C1CN(C)C(=O)C12CCCN(C(=O)[C@@H](COCc1ccccc1)NC(=O)C(C)(C)N)C2` (single isomer, unassigned) [Example 1.51], the concentration for a half-maximal effect (EC50) in assay [1] was determined as 0.067 µM; in assay [2], 0.0002 µM.
Take `Cc1ccc(C2CN(C)C(=O)C23CCCN(C(=O)[C@@H](COCc2ccccc2)NC(=O)C(C)(C)N)C3)cc1` (single isomer, unassigned) [Example 1.53]: the EC50 in assay [1] worked out at 0.036 µM; in assay [2] it was 0.00011 µM.
With `Cc1ccc(COC[C@@H](NC(=O)C(C)(C)N)C(=O)N2CCCC3(C2)C(=O)N(C)CC3c2ccccc2)cc1` (single isomer, unassigned) [Example 1.55], the EC50 in assay [1] was 0.072 µM; in assay [2] it was 0.00013 µM.
The like results for `CN1CC(c2ccc(F)cc2)C2(CCCN(C(=O)[C@@H](COCc3ccc(Cl)cc3)NC(=O)C(C)(C)N)C2)C1=O` (single isomer, unassigned) [Example 1.57] were, in that order, 0.043 µM and 0.00022 µM.
On the same counts, the results for `CN1CC(c2ccccc2)C2(CCCN(C(=O)[C@@H](COCC3CCCCC3)NC(=O)C(C)(C)N)C2)C1=O` (single isomer, unassigned) [Example 1.60] are 0.047 µM and 0.0003 µM.
On the same counts, the results for `CN1CN(c2ccccc2)C2(CCCN(C(=O)[C@@H](COCc3ccccc3)NC(=O)C(C)(C)N)C2)C1=O` (single isomer, unassigned) [Example 1.61] are 0.517 µM and 0.0029 µM.
Take `CN1C(=O)C2(CCCN(C(=O)[C@@H](COCc3ccccc3)NC(=O)C(C)(C)N)C2)C1c1ccccc1` (single isomer, unassigned) [Example 2.0(ii)]: the figures for the EC50 in assay [1] and in assay [2] were 0.456 µM and 0.0011 µM, respectively.
